Values quoted from earlier work, collected in patent publication US20040265230A1, “Compositions and methods for diagnosing and treating colon cancers” (priority 2003, published 2004).

Key:
[1] = test system: lymphoid, myeloid, colon, and prostate cancer cells; conditions: prostate xenografts in nude mice
[2] = test system: tumor cells; conditions: read-out: concentration causing 50% growth inhibition of tumor cells

Q: Which results are given for `CN1CC[C@H](c2c(O)cc(O)c3c(=O)cc(-c4ccccc4Cl)oc23)[C@H](O)C1` [Flavopiridol]?
A: inhibition of cancer cells grown in vivo as tumor xenografts [1]: inhibits; IC50 [2]: 60 nM
